According to PubChem BioAssay AID588631 (NMMLSC, 2011):
Activity calls are given as the source filed them. The rule behind the calls is not given here.

Target: Ras-related protein Rab7 wild type (dog)
Assay: Rab7 wildtype GTP binding inhibitors, SAR follow-up, biochemical, dog Rab7, bead multiplex flow cytometry, round 2 (AID 588631)
Settings: Bead-based multiplex flow cytometry, fluorescent GTP binding; for percent response (remaining binding): at 100 µM (top of the series)

SMILES: CCC1(C)Cc2c(sc(NC(=S)NC(=O)c3ccccc3)c2C(=O)O)CO1 (stereo not given)
- EC50: 37 nM

SMILES: CC1(C)Cc2c(sc(NC(=S)NC(=O)C3CCCCC3)c2C(=O)O)CO1
- EC50: 809 nM

SMILES: CC1(C)Cc2c(sc(NC(=S)NC(=O)c3ccc(Br)cc3)c2C(=O)O)CO1
- EC50: 496 nM

SMILES: COc1ccccc1C(=O)NC(=S)Nc1sc2c(c1C(=O)O)CC(C)(C)OC2
- EC50: 1120 nM

SMILES: Cc1cccc(C(=O)NC(=S)Nc2sc3c(c2C(=O)O)CC(C)(C)OC3)c1
- EC50: 1160 nM

SMILES: CC1(C)Cc2c(sc(NC(=S)NC(=O)c3cccc(Br)c3)c2C(=O)O)CO1
- EC50: 3990 nM

SMILES: O=C(NC(=S)Nc1sc2c(c1C(=O)O)CC1(CCCC1)OC2)c1ccccc1
- EC50: 35 nM

SMILES: Cc1ccccc1C(=O)NC(=S)Nc1sc2c(c1C(=O)O)CC(C)(C)OC2
- EC50: 411 nM

SMILES: CC1(C)Cc2c(sc(NC(=S)NC(=O)c3cccs3)c2C(=O)O)CO1
- EC50: 25 nM

SMILES: CC1(C)Cc2c(sc(NC(=S)NC(=O)c3ccc(F)cc3)c2C(=O)O)CO1
- EC50: 95 nM

SMILES: Cc1ccc(C(=O)NC(=S)Nc2sc3c(c2C(=O)O)CC(C)(C)OC3)cc1
- EC50: 135 nM

SMILES: CC1(C)Cc2c(sc(NC(=S)NC(=O)c3ccccc3Br)c2C(=O)O)CO1
- EC50: 1210 nM

SMILES: CC(C)(C)C1Cc2c(sc(NC(=S)NC(=O)c3ccccc3)c2C(=O)O)CO1 (stereo not given)
- percent response (remaining binding): inactive

SMILES: CC1(C)CCc2sc(NC(=S)NC(=O)c3ccccc3)c(C(=O)O)c2C1
- EC50: 46 nM

SMILES: CC1(C)Cc2c(sc(NC(=S)NC(=O)c3cccc(F)c3)c2C(=O)O)CO1
- EC50: 415 nM

SMILES: CC1(C)Cc2c(sc(NC(=S)Nc3ccccc3)c2C(=O)O)CO1
- percent response (remaining binding): inactive

SMILES: COc1cccc(C(=O)NC(=S)Nc2sc3c(c2C(=O)O)CC(C)(C)OC3)c1
- EC50: 295 nM

SMILES: CC1(C)Cc2c(sc(NC(=S)NC(=O)c3ccccc3F)c2C(=O)O)CO1
- EC50: 318 nM

SMILES: CC1(C)Cc2c(sc(NC(=S)NC(=O)c3ccco3)c2C(=O)O)CO1
- EC50: 74 nM

SMILES: COc1ccc(C(=O)NC(=S)Nc2sc3c(c2C(=O)O)CC(C)(C)OC3)cc1
- EC50: 221 nM
